Assay results reported in the supplement of paper PMC11061612.

What was measured:
Assay in all cases: combination Emax (second highest fraction inhibited in the dose matrix, 72 h); higher = more inhibition; extreme values may be limits of the assay
[1] = tested on: SW48 (Colorectal Carcinoma)
Method in brief: (§1)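 Bliss excess equals the observed combination effect minus the expected value EA + EB − EA·EB, where EA and EB are the effects of each agent alone. Combination Emax is the second-highest inhibition within the matrix. Inhibition was scaled from CellTiter-Glo 2.0 luminescence, with 0 set by vehicle wells and 1 by blank wells, after 72 hours of two-drug dosing of cells plated in 1536-well plates.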

[2] = tested on: HuO9 (Osteosarcoma)
Method in brief: as §1

[3] = tested on: A172 (Glioblastoma)
Method in brief: as §1

[4] = tested on: TYK-nu (Ovarian Carcinoma)
Method in brief: as §1

[5] = tested on: P31-FUJ (Acute Myeloid Leukemia)
Method in brief: as §1

[6] = tested on: MSTO-211H (Mesothelioma)
Method in brief: as §1

[7] = tested on: NOMO-1 (Acute Myeloid Leukemia)
Method in brief: as §1

[8] = tested on: EW-22 (Ewing's Sarcoma)
Method in brief: as §1

[9] = tested on: CAL-39 (Other Solid Carcinomas)
Method in brief: as §1

[10] = tested on: SK-MEL-1 (Melanoma)
Method in brief: as §1

[11] = tested on: SW948 (Colorectal Carcinoma)
Method in brief: as §1

[12] = tested on: SNU-61 (Colorectal Carcinoma)
Method in brief: as §1

[13] = tested on: MCF7 (Breast Carcinoma)
Method in brief: as §1

[14] = tested on: HCC-827 (Lung Adenocarcinoma)
Method in brief: as §1

[15] = tested on: SK-UT-1 (Other Solid Carcinomas)
Method in brief: as §1

[16] = tested on: HCC38 (Breast Carcinoma)
Method in brief: as §1

[17] = tested on: DOK (Oral Cavity Carcinoma)
Method in brief: as §1

[18] = tested on: KG-1 (Acute Myeloid Leukemia)
Method in brief: as §1

[19] = tested on: JHH-6 (Hepatocellular Carcinoma)
Method in brief: as §1

[20] = tested on: MES-SA (Other Solid Carcinomas)
Method in brief: as §1

| SMILES | combination Emax [1] | combination Emax [2] | combination Emax [3] | combination Emax [4] | combination Emax [5] | combination Emax [6] | combination Emax [7] | combination Emax [8] | combination Emax [9] | combination Emax [10] | combination Emax [11] | combination Emax [12] | combination Emax [13] | combination Emax [14] | combination Emax [15] | combination Emax [16] | combination Emax [17] | combination Emax [18] | combination Emax [19] | combination Emax [20] |
| --- | --- | --- | --- | --- | --- | --- | --- | --- | --- | --- | --- | --- | --- | --- | --- | --- | --- | --- | --- | --- |
| CCc1c2c(nc3ccc(O)cc13)-c1cc3c(c(=O)n1C2)COC(=O)[C@]3(O)CC [SN-38] + CN(C)CCCOc1ccc(-c2ccc3ncc4c(c3c2)n(C2CCOCC2)c(=O)n4C)cn1 [AZD0156] (first compound max 0.3 µM, 7x7, partner max 1 µM) | 0.826 | 0.989 | 0.81 | 0.847 | 0.979 | 0.804 | 0.98 | 0.951 | 0.896 | 0.538 | 0.746 | 0.152 | 0.686 | 0.526 | 0.97 | 0.682 | 0.488 | 0.886 | 0.326 | 0.782 |
| C[C@@H](c1ccc2nccn2c1)n1nnc2ncc(-c3cnn(C)c3)nc21 [Savolitinib] + CC1(C)CCC(CN2CCN(c3ccc(C(=O)NS(=O)(=O)c4ccc(NCC5CCOCC5)c([N+](=O)[O-])c4)c(Oc4cnc5[nH]ccc5c4)c3)CC2)=C(c2ccc(Cl)cc2)C1 [Venetoclax] (first compound max 1 µM, 7x7, partner max 1 µM) | 0.177 | 0.197 | 0.145 | 0.168 | 0.372 | 0.114 | 0.395 | 0.173 | 0.157 | 0.158 | 0.166 | 0.143 | 0.129 | 0.266 | 0.149 | 0.158 | 0.116 | 0.38 | 0.0411 | 0.0576 |
| C[C@@H](c1ccc2nccn2c1)n1nnc2ncc(-c3cnn(C)c3)nc21 [Savolitinib] + Cc1c2c(nn1C)CSCc1cc(n(C)n1)CSc1cc(c3ccccc3c1)OCCCc1c(C(=O)O)n(C)c3c-2c(Cl)ccc13 [AZD5991] (first compound max 1 µM, 7x7, partner max 1 µM) | 0.24 | 0.739 | 0.112 | 0.295 | 0.94 | 0.123 | 0.864 | 0.271 | 0.264 | 0.0746 | 0.215 | 0.151 | 0.49 | 0.283 | 0.174 | 0.207 | 0.372 | 0.711 | 0.103 | 0.191 |
| Cn1cnc2c(F)c(Nc3ccc(Br)cc3Cl)c(C(=O)NOCCO)cc21 [Selumetinib] + C=CCn1c(=O)c2cnc(Nc3ccc(N4CCN(C)CC4)cc3)nc2n1-c1cccc(C(C)(C)O)n1 [AZD1775] (first compound max 10 µM, partner max 1 µM) | 0.433 | 0.747 | 0.365 | 0.715 | 0.935 | 0.442 | 0.999 | 0.573 | 0.726 | 0.896 | 0.79 | 0.527 | 0.247 | 0.377 | 0.58 | 0.377 | 0.618 | 0.587 | 0.297 | 0.731 |
| Cn1cnc2c(F)c(Nc3ccc(Br)cc3Cl)c(C(=O)NOCCO)cc21 [Selumetinib] + CC(C)n1c(=O)n(C)c2cnc3cc(F)c(-c4ccc(OCCCN5CCCCC5)nc4)cc3c21 [AZD1390] (first compound max 10 µM, 7x7, partner max 0.3 µM) | 0.38 | 0.626 | 0.257 | 0.548 | 0.555 | 0.162 | 0.767 | 0.128 | 0.643 | 0.838 | 0.698 | 0.389 | 0.084 | 0.195 | 0.153 | 0.116 | 0.416 | 0.307 | 0.168 | 0.115 |
| Cn1cnc2c(F)c(Nc3ccc(Br)cc3Cl)c(C(=O)NOCCO)cc21 [Selumetinib] + CCN(CCO)CCCOc1ccc2c(Nc3cc(CC(=O)Nc4cccc(F)c4)[nH]n3)ncnc2c1 [AZD2811] (first compound max 10 µM, 7x7, partner max 1 µM) | 0.989 | 0.242 | 0.416 | 0.554 | 0.951 | 0.318 | 0.988 | 0.695 | 0.72 | 0.863 | 0.785 | 0.486 | 0.191 | 0.277 | 0.328 | 0.133 | 0.633 | 0.392 | 0.318 | 0.405 |
| Cn1cnc2c(F)c(Nc3ccc(Br)cc3Cl)c(C(=O)NOCCO)cc21 [Selumetinib] + C[C@@H]1COCCN1C2=NC(=NC(=C2)C3(CC3)[S@](=N)(=O)C)C4=C5C=CNC5=NC=C4 [AZD6738] (first compound max 10 µM, 7x7, partner max 10 µM) | 0.723 | 0.726 | 0.549 | 0.732 | 0.948 | 0.396 | 0.994 | 0.855 | 0.697 | 0.922 | 0.732 | 0.527 | 0.468 | 0.413 | 0.801 | 0.373 | 0.51 | 0.787 | 0.445 | 0.601 |
| CC(=O)Nc1cccc(-n2c(=O)n(C3CC3)c(=O)c3c(Nc4ccc(I)cc4F)n(C)c(=O)c(C)c32)c1 [Trametinib] + Cc1nc(-c2cn3c(n2)-c2ccc(-c4cnn(C(C)(C)C(N)=O)c4)cc2OCC3)n(C(C)C)n1 [Taselisib] (first compound max 1 µM, 7x7, partner max 10 µM) | 0.95 | 0.8 | 0.761 | 0.737 | 0.915 | 0.854 | 0.98 | 0.722 | 1 | 0.942 | 0.994 | 0.672 | 0.732 | 0.762 | 0.597 | 0.364 | 0.998 | 0.412 | 0.636 | 0.825 |
| CC1(C)CCC(CN2CCN(c3ccc(C(=O)NS(=O)(=O)c4ccc(NCC5CCOCC5)c([N+](=O)[O-])c4)c(Oc4cnc5[nH]ccc5c4)c3)CC2)=C(c2ccc(Cl)cc2)C1 [Venetoclax] + C1CN(CCC1(C(=O)N[C@@H](CCO)C2=CC=C(C=C2)Cl)N)C3=NC=NC4=C3C=CN4 [Capivasertib] (first compound max 1 µM, 7x7, partner max 3 µM) | 0.267 | 0.488 | 0.289 | 0.298 | 0.896 | 0.251 | 0.919 | 0.905 | 0.279 | 0.208 | 0.646 | 0.154 | 0.42 | 0.273 | 0.34 | 0.244 | 0.331 | 0.516 | 0.232 | 0.355 |
| CC1(C)CCC(CN2CCN(c3ccc(C(=O)NS(=O)(=O)c4ccc(NCC5CCOCC5)c([N+](=O)[O-])c4)c(Oc4cnc5[nH]ccc5c4)c3)CC2)=C(c2ccc(Cl)cc2)C1 [Venetoclax] + C=CCn1c(=O)c2cnc(Nc3ccc(N4CCN(C)CC4)cc3)nc2n1-c1cccc(C(C)(C)O)n1 [AZD1775] (first compound max 1 µM, partner max 1 µM) | 0.809 | 0.759 | 0.315 | 0.681 | 0.942 | 0.592 | 0.99 | 0.924 | 0.36 | 0.411 | 0.773 | 0.373 | 0.452 | 0.413 | 0.921 | 0.573 | 0.333 | 0.913 | 0.296 | 0.787 |
| CC1(C)CCC(CN2CCN(c3ccc(C(=O)NS(=O)(=O)c4ccc(NCC5CCOCC5)c([N+](=O)[O-])c4)c(Oc4cnc5[nH]ccc5c4)c3)CC2)=C(c2ccc(Cl)cc2)C1 [Venetoclax] + CCN(CCO)CCCOc1ccc2c(Nc3cc(CC(=O)Nc4cccc(F)c4)[nH]n3)ncnc2c1 [AZD2811] (first compound max 1 µM, 7x7, partner max 1 µM) | 0.958 | 0.336 | 0.423 | 0.247 | 0.932 | 0.394 | 0.905 | 0.924 | 0.285 | 0.292 | 0.799 | 0.168 | 0.31 | 0.254 | 0.561 | 0.253 | 0.313 | 0.84 | 0.193 | 0.408 |
| CC1(C)CCC(CN2CCN(c3ccc(C(=O)NS(=O)(=O)c4ccc(NCC5CCOCC5)c([N+](=O)[O-])c4)c(Oc4cnc5[nH]ccc5c4)c3)CC2)=C(c2ccc(Cl)cc2)C1 [Venetoclax] + CN(C)CCCOc1ccc(-c2ccc3ncc4c(c3c2)n(C2CCOCC2)c(=O)n4C)cn1 [AZD0156] (first compound max 1 µM, 7x7, partner max 1 µM) | 0.607 | 0.343 | 0.238 | 0.174 | 0.861 | 0.123 | 0.912 | 0.866 | 0.21 | 0.231 | 0.409 | 0.182 | 0.242 | 0.26 | 0.381 | 0.193 | 0.2 | 0.595 | 0.212 | 0.138 |
